Test results taken from patent US10253002B2, “Compounds and methods of treating infections” (Neoculi Pty Ltd., priority 2013, dated 2019).

Tests used:
Assay in all cases: Broth microdilution MIC, Example 7 (NCL812 and analogues)
MRSA = type: cell-based, Staphylococcus aureus
Experimental: (§1) Minimum inhibitory concentrations (μg/ml) were determined using the broth microdilution method recommended by the Clinical and Laboratory Standards Institute (CLSI). MIC breakpoints were determined by visual assessment and then confirmed using an ELISA plate reader, measuring absorbance levels at 600 nm. Bacterial growth (turbidity) in the wells with antimicrobial was compared with the amount of growth (turbidity) in the growth-control well (containing no antimicrobial). All isolates were tested in duplicate, if there was a difference of greater than one two-fold dilution in the results, the test was repeated a third time. The purity of the isolates was closely monitored during testing by subculturing the prepared bacterial inoculum onto SBA (sheep blood agar). […] The MIC50, MIC20 and MIC range (minimum and maximum) were calculated for each of the bacterial groups.
(§2) MICs were determined against two MRSA strains, two VRE strains and one strain each of E. coli and Pseudomonas aeruginosa.

VRE = type: cell-based, Enterococcus spp.
Experimental: as §1, §2

Escherichia coli = type: cell-based; settings: 24 hours
Pseudomonas aeruginosa = type: cell-based; settings: 24 hours
[1] = MRSA 1, 24 hours, duplicate lines per compound
[2] = MRSA 2, 24 hours, duplicate lines per compound
[3] = VRE 1, 24 hours, duplicate lines per compound
[4] = VRE 2, 24 hours, duplicate lines per compound
[5] = E. coli, duplicate lines per compound
[6] = P. aeruginosa, duplicate lines per compound
[7] = isolate MRSA 1, 24 hours, 1st and 2nd replicate rows
[8] = isolate MRSA 2, 24 hours, 1st and 2nd replicate rows
[9] = isolate VRE 1, 24 hours, 1st and 2nd replicate rows
[10] = isolate VRE 2, 24 hours, 1st and 2nd replicate rows

Compound | MIC (μg/ml) at 24 hours, MRSA 1 (MRSA; [1]) [µg/mL] | MIC (μg/ml) at 24 hours, MRSA 2 (MRSA; [2]) [µg/mL] | MIC (μg/ml) at 24 hours, VRE 1 (VRE; [3]) [µg/mL] | MIC (μg/ml) at 24 hours, VRE 2 (VRE; [4]) [µg/mL] | MIC (μg/ml) at 24 hours, E. coli (Escherichia coli; [5]) [µg/mL] | MIC (μg/ml) at 24 hours, P. aeruginosa (Pseudomonas aeruginosa; [6]) [µg/mL] | MIC (μg/ml) at 24 hours, MRSA 1 (MRSA; [7]) [µg/mL] | MIC (μg/ml) at 24 hours, MRSA 2 (MRSA; [8]) [µg/mL] | MIC (μg/ml) at 24 hours, VRE 1 (VRE; [9]) [µg/mL] | MIC (μg/ml) at 24 hours, VRE 2 (VRE; [10]) [µg/mL] | MIC (μg/ml) at 24 hours, E. coli (Escherichia coli; 1st and 2nd replicate rows) [µg/mL] | MIC (μg/ml) at 24 hours, P. aeruginosa (Pseudomonas aeruginosa; 1st and 2nd replicate rows) [µg/mL] | also measured
COc1cc(Br)c(C=NNC(=N)NN=Cc2cc(OC)c(OC)cc2Br)cc1OC.Cl [NCL 135] | >128 | >128 | >128 | >128 | >128 | >128 |  |  |  |  |  |  | 
CCOC(=O)N(/N=C/c1ccc(Cl)cc1)C(N)=N/N=C/c1ccc(Cl)cc1 [NCL224] |  |  |  |  |  |  |  |  |  |  |  |  | MIC (μg/ml) at 24 hours, MRSA 1 (MRSA; MRSA 1, 24 hours): >128 µg/mL; MIC (μg/ml) at 24 hours, MRSA 2 (MRSA; MRSA 2, 24 hours): >128 µg/mL; MIC (μg/ml) at 24 hours, VRE 1 (VRE; VRE 1, 24 hours): >128 µg/mL; MIC (μg/ml) at 24 hours, VRE 2 (VRE; VRE 2, 24 hours): >128 µg/mL; MIC (μg/ml) at 24 hours, E. coli (Escherichia coli; E. coli): >128 µg/mL; MIC (μg/ml) at 24 hours, P. aeruginosa (Pseudomonas aeruginosa; P. aeruginosa): >128 µg/mL
Cl.N=C(N/N=C/c1ccccc1Br)N/N=C/c1ccccc1Br [NCL 129] | >128 | >128 | >128 | >128 | >128 | >128 |  |  |  |  |  |  | 
COc1ccc(/C=N/NC(=O)N/N=C/c2ccc(OC)cc2)cc1 [NCL006] |  |  |  |  |  |  | >128 | >128 | >128 | >128 | >128 | >128 | 
Cl.N#Cc1ccc(/C=N/NC(=N)N/N=C/c2ccc(Cl)cc2)cc1 [NCL087] | >128 | >128 | >128 | >128 | >128 | >128 |  |  |  |  |  |  | 
CC(C)(C)c1ccc(/C=N/Nc2cc(N/N=C/c3ccc(C(C)(C)C)cc3)nc(N)n2)cc1.Cl.Cl [NCL198] |  |  |  |  |  |  |  |  |  |  |  |  | MIC (μg/ml) at 24 hours, MRSA 1 (MRSA; MRSA 1, 24 hours): >128 µg/mL; MIC (μg/ml) at 24 hours, MRSA 2 (MRSA; MRSA 2, 24 hours): >128 µg/mL; MIC (μg/ml) at 24 hours, VRE 1 (VRE; VRE 1, 24 hours): >128 µg/mL; MIC (μg/ml) at 24 hours, VRE 2 (VRE; VRE 2, 24 hours): >128 µg/mL; MIC (μg/ml) at 24 hours, E. coli (Escherichia coli; E. coli): >128 µg/mL; MIC (μg/ml) at 24 hours, P. aeruginosa (Pseudomonas aeruginosa; P. aeruginosa): >128 µg/mL
COc1cc(C=NNC(=N)NN=Cc2cc(Br)c(OC)c(OC)c2)cc(Br)c1OC.Cl [NCL 130] | >128 | >128 | >128 | >128 | >128 | >128 |  |  |  |  |  |  | 
Cl.N=C(N)N/N=C/c1ccccc1C(F)(F)F [NCL042] |  |  |  |  |  |  | >128 | >128 | >128 | >128 | >128 | >128 | 
CC(=NNC(=N)NN=C(C)c1ccc(Cl)cc1O)c1ccc(Cl)cc1O.Cl [NCL 173] |  |  |  |  |  |  |  |  |  |  |  |  | MIC (μg/ml) at 24 hours, MRSA 1 (MRSA; MRSA 1, 24 hours): 16 µg/mL; MIC (μg/ml) at 24 hours, MRSA 2 (MRSA; MRSA 2, 24 hours): 16 µg/mL; MIC (μg/ml) at 24 hours, VRE 1 (VRE; VRE 1, 24 hours): 4 µg/mL; MIC (μg/ml) at 24 hours, VRE 2 (VRE; VRE 2, 24 hours): 32 µg/mL; MIC (μg/ml) at 24 hours, E. coli (Escherichia coli; E. coli): >128 µg/mL; MIC (μg/ml) at 24 hours, P. aeruginosa (Pseudomonas aeruginosa; P. aeruginosa): >128 µg/mL
CC(=NNC(=N)NN)c1ccc(C(F)(F)F)cc1.Cl [NCL073] | 128 | 128 | 16 | 64 | >128 | >128 |  |  |  |  |  |  | activity against MRSA among analogues (MRSA; MIC testing, two MRSA strains): greatest activity; activity against VRE among analogues (VRE; MIC testing, two VRE strains): greatest activity
Cc1ccc(/C=N/NC(=N)N/N=C/c2ccc(C)cc2)cc1.Cl [NCL 038] | 8 | 8 | 8 | 8 | >128 | >128 |  |  |  |  |  |  | 
N#Cc1ccccc1/C=N/NC(=O)N/N=C/c1ccccc1C#N [NCL008] |  |  |  |  |  |  | >128 | >128 | >128 | >128 | >128 | >128 | 
Cl.N=C(N)N/N=C/c1ccccc1F [NCL016] |  |  |  |  |  |  | >128 | >128 | >128 | >128 | >128 | >128 | 
